Assay results as given in PubChem BioAssay AID1963846 (Molecular Pharmacology Branch, DTP, NCI, 2024).

Tested on: 454973-116-R2-J3-PDC complex spheroid viability
Assay: Anticancer human tumor 454973-116-R2-J3-PDC patient-derived pancreatic carcinoma cell line growth inhibition [POLQ]
Settings: for IC50: curve of first compound; for viability, T/C: stronger effect = lower value
Method in brief: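 Three-cell-type spheroids modelling solid tumor plus stroma served as the readout system; POL inhibitors were tested individually and in combination, concentration ranges set by clinical Cmax where known.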

[1] = second compound 0.0316 µM, first compound 0.00316 µM
[2] = second compound 0.0316 µM, first compound 0.01 µM
[3] = second compound 0.0316 µM, first compound 0.0316 µM
[4] = second compound 0.0316 µM, first compound 0.1 µM
[5] = second compound 0.0316 µM, first compound 0.316 µM
[6] = second compound 0.0316 µM, first compound 1 µM
[7] = second compound 0.1 µM, first compound 0.00316 µM
[8] = second compound 0.1 µM, first compound 0.01 µM
[9] = second compound 0.1 µM, first compound 0.0316 µM
[10] = second compound 0.1 µM, first compound 0.1 µM
[11] = second compound 0.1 µM, first compound 0.316 µM
[12] = second compound 0.1 µM, first compound 1 µM
[13] = second compound 0.316 µM, first compound 0.00316 µM
[14] = second compound 0.316 µM, first compound 0.01 µM
[15] = second compound 0.316 µM, first compound 0.0316 µM
[16] = second compound 0.316 µM, first compound 0.1 µM
[17] = second compound 0.316 µM, first compound 0.316 µM
[18] = second compound 0.316 µM, first compound 1 µM
[19] = second compound 1 µM, first compound 0.00316 µM
[20] = second compound 1 µM, first compound 0.01 µM
[21] = second compound 1 µM, first compound 0.0316 µM
[22] = second compound 1 µM, first compound 0.1 µM
[23] = second compound 1 µM, first compound 0.316 µM
[24] = second compound 1 µM, first compound 1 µM
[25] = second compound 3.16 µM, first compound 0.00316 µM
[26] = second compound 3.16 µM, first compound 0.01 µM
[27] = second compound 3.16 µM, first compound 0.0316 µM
[28] = second compound 3.16 µM, first compound 0.1 µM
[29] = second compound 3.16 µM, first compound 0.316 µM
[30] = second compound 3.16 µM, first compound 1 µM
[31] = second compound 10 µM, first compound 0.00316 µM
[32] = second compound 10 µM, first compound 0.01 µM
[33] = second compound 10 µM, first compound 0.0316 µM
[34] = second compound 10 µM, first compound 0.1 µM
[35] = second compound 10 µM, first compound 0.316 µM
[36] = second compound 10 µM, first compound 1 µM
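Further: spheroids exposed to drugs for seven days before measurement.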
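Wherever viability, T/C is given: percent viability relative to DMSO vehicle control wells taken as 100%.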

With C=CCn1c(=O)c2cnc(Nc3ccc(N4CCN(C)CC4)cc3)nc2n1-c1cccc(C(C)(C)O)n1 + Nc1ccc(C#CCN(C(=O)Cc2ncc(C(F)(F)F)cc2C(F)(F)F)c2ccc(F)cc2)nn1 the IC50 (second compound 0.0316 µM) was 455 nM, the IC50 (second compound 0.1 µM) was 451 nM and the IC50 (second compound 0.316 µM) was 515 nM. For the same compound, the IC50 (second compound 1 µM) was 408 nM, the IC50 (second compound 3.16 µM) was 475 nM and the IC50 (second compound 10 µM) was 423 nM. For the same compound, the viability, T/C [1] was 108%, the viability, T/C [2] was 100% and the viability, T/C [3] was 104%. For the same compound, the viability, T/C [4] was 99%, the viability, T/C [5] was 68.7% and the viability, T/C [6] was 9.62%. It also gave a viability, T/C [7] of 106%, a viability, T/C [8] of 102% and a viability, T/C [9] of 102%. It also gave a viability, T/C [10] of 104%, a viability, T/C [11] of 68.5% and a viability, T/C [12] of 8.41%. For the same compound, the viability, T/C [13] was 99.3%, the viability, T/C [14] was 109% and the viability, T/C [15] was 106%. The viability, T/C [16] was 107%, the viability, T/C [17] was 79.3% and the viability, T/C [18] was 10.2%. The viability, T/C [19] was 105%, the viability, T/C [20] was 101% and the viability, T/C [21] was 114%. For the same compound, the viability, T/C [22] was 114%, the viability, T/C [23] was 62.3% and the viability, T/C [24] was 6.99%. For the same compound, the viability, T/C [25] was 105%, the viability, T/C [26] was 114% and the viability, T/C [27] was 115%. It also gave a viability, T/C [28] of 114%, a viability, T/C [29] of 72.7% and a viability, T/C [30] of 8.66%. It also gave a viability, T/C [31] of 116%, a viability, T/C [32] of 116% and a viability, T/C [33] of 129%. The viability, T/C [34] was 112%, the viability, T/C [35] was 65% and the viability, T/C [36] was 6.21%.

With O=C(Nc1ccc(O)c(NS(=O)(=O)c2ccc(F)cc2)c1)c1ccc(-c2ccccc2)cc1 + COC1C(OC(N)=O)C(O)C(Oc2ccc3c(O)c(NC(=O)c4ccc(O)c(CC=C(C)C)c4)c(=O)oc3c2C)OC1(C)C the IC50 (second compound 0.0316 µM) was > 10000 nM, the IC50 (second compound 0.1 µM) was > 10000 nM and the IC50 (second compound 0.316 µM) was > 10000 nM. For the same compound, the IC50 (second compound 1 µM) was > 10000 nM, the IC50 (second compound 3.16 µM) was > 10000 nM and the IC50 (second compound 10 µM) was > 10000 nM. It also gave a viability, T/C [3] of 93%, a viability, T/C [4] of 107% and a viability, T/C [5] of 98.8%. The viability, T/C [6] was 112%, the viability, T/C (second compound 0.0316 µM, first compound 3.16 µM) was 112% and the viability, T/C (second compound 0.0316 µM, first compound 10 µM) was 105%. It also gave a viability, T/C [9] of 101%, a viability, T/C [10] of 119% and a viability, T/C [11] of 103%. It also gave a viability, T/C [12] of 124%, a viability, T/C (second compound 0.1 µM, first compound 3.16 µM) of 106% and a viability, T/C (second compound 0.1 µM, first compound 10 µM) of 105%. It also gave a viability, T/C [15] of 101%, a viability, T/C [16] of 110% and a viability, T/C [17] of 112%. The viability, T/C [18] was 116%, the viability, T/C (second compound 0.316 µM, first compound 3.16 µM) was 113% and the viability, T/C (second compound 0.316 µM, first compound 10 µM) was 103%. It also gave a viability, T/C [21] of 109%, a viability, T/C [22] of 104% and a viability, T/C [23] of 108%. The viability, T/C [24] was 117%, the viability, T/C (second compound 1 µM, first compound 3.16 µM) was 109% and the viability, T/C (second compound 1 µM, first compound 10 µM) was 98.4%. For the same compound, the viability, T/C [27] was 113%, the viability, T/C [28] was 115% and the viability, T/C [29] was 107%. It also gave a viability, T/C [30] of 106%, a viability, T/C (second compound 3.16 µM, first compound 3.16 µM) of 118% and a viability, T/C (second compound 3.16 µM, first compound 10 µM) of 94.2%. It also gave a viability, T/C [33] of 108%, a viability, T/C [34] of 92.1% and a viability, T/C [35] of 93.4%. For the same compound, the viability, T/C [36] was 104%, the viability, T/C (second compound 10 µM, first compound 3.16 µM) was 102% and the viability, T/C (second compound 10 µM, first compound 10 µM) was 85.6%.

For Cn1ncnc1[C@H]1c2n[nH]c(=O)c3cc(F)cc(c23)N[C@@H]1c1ccc(F)cc1 + COC1C(OC(N)=O)C(O)C(Oc2ccc3c(O)c(NC(=O)c4ccc(O)c(CC=C(C)C)c4)c(=O)oc3c2C)OC1(C)C, the IC50 (second compound 0.0316 µM) was > 100 nM, the IC50 (second compound 0.1 µM) was > 100 nM and the IC50 (second compound 0.316 µM) was > 100 nM. For the same compound, the IC50 (second compound 1 µM) was > 100 nM, the IC50 (second compound 3.16 µM) was > 100 nM and the IC50 (second compound 10 µM) was > 100 nM. It also gave a viability, T/C (second compound 0.0316 µM, first compound 0.000316 µM) of 100%, a viability, T/C (second compound 0.0316 µM, first compound 0.001 µM) of 111% and a viability, T/C [1] of 102%. The viability, T/C [2] was 109%, the viability, T/C [3] was 95.1% and the viability, T/C [4] was 83.4%. For the same compound, the viability, T/C (second compound 0.1 µM, first compound 0.000316 µM) was 102%, the viability, T/C (second compound 0.1 µM, first compound 0.001 µM) was 112% and the viability, T/C [7] was 105%. It also gave a viability, T/C [8] of 104%, a viability, T/C [9] of 98.5% and a viability, T/C [10] of 90.5%. The viability, T/C (second compound 0.316 µM, first compound 0.000316 µM) was 112%, the viability, T/C (second compound 0.316 µM, first compound 0.001 µM) was 114% and the viability, T/C [13] was 105%. It also gave a viability, T/C [14] of 100%, a viability, T/C [15] of 93.5% and a viability, T/C [16] of 83.3%. It also gave a viability, T/C (second compound 1 µM, first compound 0.000316 µM) of 109%, a viability, T/C (second compound 1 µM, first compound 0.001 µM) of 102% and a viability, T/C [19] of 107%. The viability, T/C [20] was 102%, the viability, T/C [21] was 93.1% and the viability, T/C [22] was 82.5%. The viability, T/C (second compound 3.16 µM, first compound 0.000316 µM) was 107%, the viability, T/C (second compound 3.16 µM, first compound 0.001 µM) was 111% and the viability, T/C [25] was 104%. It also gave a viability, T/C [26] of 100%, a viability, T/C [27] of 104% and a viability, T/C [28] of 88.9%. It also gave a viability, T/C (second compound 10 µM, first compound 0.000316 µM) of 101%, a viability, T/C (second compound 10 µM, first compound 0.001 µM) of 96% and a viability, T/C [31] of 98.3%. The viability, T/C [32] was 103%, the viability, T/C [33] was 87.2% and the viability, T/C [34] was 78.1%.
